Reference: patent publication US20160158200A1, “Combinations of Hepatitis C Virus Inhibitors” (priority 2013, published 2016)

The compounds below were run on HCV genotype-1a variant with glutamine 30 changed to glutamate in the NS5A protein. Details: test compound titrated with BMS-790052 fixed at 200 nM; genotype 1a Q30E replicon.
Assay type: cell-based
Summary of the method: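 Synergy was assessed by combining several fixed amounts of an NS5A-targeting compound with a titration of the second compound of interest.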
In the case of `CC(C)[C@H](NC(=O)C1CCC1)c1ncc(-c2ccc(-c3ccc(-c4cnc([C@@H](NC(=O)C5CCC5)C(C)C)[nH]4)cc3)cc2)[nH]1` [Compound S-22], the “Fold-Synergistic 1a (Q30E)” value is reported as >100 fold.
With `CC(C)[C@H](NC(=O)C1CCCC1)c1ncc(-c2ccc(-c3ccc(-c4cnc([C@@H](NC(=O)C5CCCC5)C(C)C)[nH]4)cc3)cc2)[nH]1` [Compound S-23] the “Fold-Synergistic 1a (Q30E)” value was >100 fold.
`COc1ccc(C2(C(=O)N[C@H](c3ncc(-c4ccc(-c5ccc(-c6cnc([C@@H](NC(=O)C7(c8ccc(OC)cc8)CCCC7)C(C)C)[nH]6)cc5)cc4)[nH]3)C(C)C)CCCC2)cc1` [Compound S-24] was tested, and the “Fold-Synergistic 1a (Q30E)” value was >100 fold.
With `CC(C)[C@H](NC(=O)CCC1CCCC1)c1ncc(-c2ccc(-c3ccc(-c4cnc([C@@H](NC(=O)CCC5CCCC5)C(C)C)[nH]4)cc3)cc2)[nH]1` [Compound S-25] the “Fold-Synergistic 1a (Q30E)” value was >100 fold.
For `CC(C)[C@H](NC(=O)CC1CCCCC1)c1ncc(-c2ccc(-c3ccc(-c4cnc([C@@H](NC(=O)CC5CCCCC5)C(C)C)[nH]4)cc3)cc2)[nH]1` [Compound S-26], the “Fold-Synergistic 1a (Q30E)” value was >100 fold.
With `CC(C)[C@H](NC(=O)c1ccccc1Oc1ccccc1)c1ncc(-c2ccc(-c3ccc(-c4cnc([C@@H](NC(=O)c5ccccc5Oc5ccccc5)C(C)C)[nH]4)cc3)cc2)[nH]1` [Compound S-27] the “Fold-Synergistic 1a (Q30E)” value was >10 fold.
For `COc1ccc(C(=O)N[C@H](c2ncc(-c3ccc(-c4ccc(-c5cnc([C@@H](NC(=O)c6ccc(OC)cc6)C(C)C)[nH]5)cc4)cc3)[nH]2)C(C)C)cc1` [Compound S-28], the “Fold-Synergistic 1a (Q30E)” value was >100 fold.
`CC(C)[C@H](NC(=O)CC#N)c1ncc(-c2ccc(-c3ccc(-c4cnc([C@@H](NC(=O)CC#N)C(C)C)[nH]4)cc3)cc2)[nH]1` [Compound S-29] was tested, and the “Fold-Synergistic 1a (Q30E)” value was >100 fold.
`CC(C)[C@H](NC(=O)CC(c1ccccc1)c1ccccc1)c1ncc(-c2ccc(-c3ccc(-c4cnc([C@@H](NC(=O)CC(c5ccccc5)c5ccccc5)C(C)C)[nH]4)cc3)cc2)[nH]1` [Compound S-30] was tested, and the “Fold-Synergistic 1a (Q30E)” value was >100 fold.
With `CCC(=O)N[C@H](c1ncc(-c2ccc(-c3ccc(-c4cnc([C@@H](NC(=O)CC)C(C)C)[nH]4)cc3)cc2)[nH]1)C(C)C` [Compound S-31] the “Fold-Synergistic 1a (Q30E)” value was >100 fold.
In the case of `CC(C)CCC(=O)N[C@H](c1ncc(-c2ccc(-c3ccc(-c4cnc([C@@H](NC(=O)CCC(C)C)C(C)C)[nH]4)cc3)cc2)[nH]1)C(C)C` [Compound S-32], the “Fold-Synergistic 1a (Q30E)” value is reported as >100 fold.
For `CCCC(=O)N[C@H](c1ncc(-c2ccc(-c3ccc(-c4cnc([C@@H](NC(=O)CCC)C(C)C)[nH]4)cc3)cc2)[nH]1)C(C)C` [Compound S-33], the “Fold-Synergistic 1a (Q30E)” value was >100 fold.
`CC(C)[C@H](NC(=O)C(C)(C)C)c1ncc(-c2ccc(-c3ccc(-c4cnc([C@@H](NC(=O)C(C)(C)C)C(C)C)[nH]4)cc3)cc2)[nH]1` [Compound S-34] was tested, and the “Fold-Synergistic 1a (Q30E)” value was >100 fold.
`CC(C)[C@H](NC(=O)COc1ccccc1)c1ncc(-c2ccc(-c3ccc(-c4cnc([C@@H](NC(=O)COc5ccccc5)C(C)C)[nH]4)cc3)cc2)[nH]1` [Compound S-35] was tested, and the “Fold-Synergistic 1a (Q30E)” value was >100 fold.
`CC(C)[C@H](NC(=O)Cc1ccccc1)c1ncc(-c2ccc(-c3ccc(-c4cnc([C@@H](NC(=O)Cc5ccccc5)C(C)C)[nH]4)cc3)cc2)[nH]1` [Compound S-36] was tested, and the “Fold-Synergistic 1a (Q30E)” value was >10 fold.
In the case of `CC(C)[C@H](NC(=O)Cc1ccccc1F)c1ncc(-c2ccc(-c3ccc(-c4cnc([C@@H](NC(=O)Cc5ccccc5F)C(C)C)[nH]4)cc3)cc2)[nH]1` [Compound S-37], the “Fold-Synergistic 1a (Q30E)” value is reported as >100 fold.
`CC(C)[C@H](NC(=O)Cc1ccccc1Cl)c1ncc(-c2ccc(-c3ccc(-c4cnc([C@@H](NC(=O)Cc5ccccc5Cl)C(C)C)[nH]4)cc3)cc2)[nH]1` [Compound S-38] was tested, and the “Fold-Synergistic 1a (Q30E)” value was >100 fold.
`Cc1ccccc1CC(=O)N[C@H](c1ncc(-c2ccc(-c3ccc(-c4cnc([C@@H](NC(=O)Cc5ccccc5C)C(C)C)[nH]4)cc3)cc2)[nH]1)C(C)C` [Compound S-39] was tested, and the “Fold-Synergistic 1a (Q30E)” value was >100 fold.
In the case of `COc1cccc(CC(=O)N[C@H](c2ncc(-c3ccc(-c4ccc(-c5cnc([C@@H](NC(=O)Cc6cccc(OC)c6)C(C)C)[nH]5)cc4)cc3)[nH]2)C(C)C)c1` [Compound S-40], the “Fold-Synergistic 1a (Q30E)” value is reported as >100 fold.
For `Cc1cccc(CC(=O)N[C@H](c2ncc(-c3ccc(-c4ccc(-c5cnc([C@@H](NC(=O)Cc6cccc(C)c6)C(C)C)[nH]5)cc4)cc3)[nH]2)C(C)C)c1` [Compound S-41], the “Fold-Synergistic 1a (Q30E)” value was >10 fold.
In the case of `Cc1ccc(CC(=O)N[C@H](c2ncc(-c3ccc(-c4ccc(-c5cnc([C@@H](NC(=O)Cc6ccc(C)cc6)C(C)C)[nH]5)cc4)cc3)[nH]2)C(C)C)cc1` [Compound S-42], the “Fold-Synergistic 1a (Q30E)” value is reported as >100 fold.
For `CC(C)[C@H](NC(=O)/C=C/c1ccccc1)c1ncc(-c2ccc(-c3ccc(-c4cnc([C@@H](NC(=O)/C=C/c5ccccc5)C(C)C)[nH]4)cc3)cc2)[nH]1` [Compound S-43], the “Fold-Synergistic 1a (Q30E)” value was >100 fold.
For `C#CCCC(=O)N[C@H](c1ncc(-c2ccc(-c3ccc(-c4cnc([C@@H](NC(=O)CCC#C)C(C)C)[nH]4)cc3)cc2)[nH]1)C(C)C` [Compound S-44], the “Fold-Synergistic 1a (Q30E)” value was >100 fold.
In the case of `CCCCC(=O)N[C@H](c1ncc(-c2ccc(-c3ccc(-c4cnc([C@@H](NC(=O)CCCC)C(C)C)[nH]4)cc3)cc2)[nH]1)C(C)C` [Compound S-45], the “Fold-Synergistic 1a (Q30E)” value is reported as >100 fold.
In the case of `CC(C)[C@H](NC(=O)c1ccccn1)c1ncc(-c2ccc(-c3ccc(-c4cnc([C@@H](NC(=O)c5ccccn5)C(C)C)[nH]4)cc3)cc2)[nH]1` [Compound S-46], the “Fold-Synergistic 1a (Q30E)” value is reported as >10 fold.
In the case of `CC(C)[C@H](NC(=O)C(C)(C)c1ccccc1)c1ncc(-c2ccc(-c3ccc(-c4cnc([C@@H](NC(=O)C(C)(C)c5ccccc5)C(C)C)[nH]4)cc3)cc2)[nH]1` [Compound S-47], the “Fold-Synergistic 1a (Q30E)” value is reported as >100 fold.
With `Cc1cccc(C(=O)N[C@H](c2ncc(-c3ccc(-c4ccc(-c5cnc([C@@H](NC(=O)c6cccc(C)n6)C(C)C)[nH]5)cc4)cc3)[nH]2)C(C)C)n1` [Compound S-48] the “Fold-Synergistic 1a (Q30E)” value was >100 fold.
For `CC(=O)N[C@H](c1ncc(-c2ccc(-c3ccc(-c4cnc([C@@H](NC(C)=O)C(C)C)[nH]4)cc3)cc2)[nH]1)C(C)C` [Compound S-49], the “Fold-Synergistic 1a (Q30E)” value was >10 fold.
For `CC(C)[C@H](NC(=O)CC1CC1)c1ncc(-c2ccc(-c3ccc(-c4cnc([C@@H](NC(=O)CC5CC5)C(C)C)[nH]4)cc3)cc2)[nH]1` [Compound S-50], the “Fold-Synergistic 1a (Q30E)” value was >10 fold.
With `COCCC(=O)N[C@H](c1ncc(-c2ccc(-c3ccc(-c4cnc([C@@H](NC(=O)CCOC)C(C)C)[nH]4)cc3)cc2)[nH]1)C(C)C` [Compound S-51] the “Fold-Synergistic 1a (Q30E)” value was >10 fold.
With `COc1ncccc1C(=O)N[C@H](c1ncc(-c2ccc(-c3ccc(-c4cnc([C@@H](NC(=O)c5cccnc5OC)C(C)C)[nH]4)cc3)cc2)[nH]1)C(C)C` [Compound S-52] the “Fold-Synergistic 1a (Q30E)” value was >100 fold.
`CC(C)[C@H](NC(=O)CC(F)(F)F)c1ncc(-c2ccc(-c3ccc(-c4cnc([C@@H](NC(=O)CC(F)(F)F)C(C)C)[nH]4)cc3)cc2)[nH]1` [Compound S-53] was tested, and the “Fold-Synergistic 1a (Q30E)” value was >100 fold.
With `CC(C)[C@H](NC(=O)C1(C#N)CC1)c1ncc(-c2ccc(-c3ccc(-c4cnc([C@@H](NC(=O)C5(C#N)CC5)C(C)C)[nH]4)cc3)cc2)[nH]1` [Compound S-54] the “Fold-Synergistic 1a (Q30E)” value was >100 fold.
